Measured values as given in US20110319464A1, “METHODS FOR TREATING BENIGN PROSTATIC HYPERPLASIA” (KISSEI PHARMACEUTICAL CO., LTD., priority 2007, published 2011).

Tests used:
Type in all cases: in vivo, human
[1] = tested on: symptoms of BPH; test: Study C: 4 mg or 8 mg Silodosin Once Daily (KMD-3213-US021-99), U.S. Phase 2 Study; conditions: for Incidence of Adverse Events: Dizziness / Incidence of Adverse Events: Orthostatic Hypotension / Incidence of Adverse Events: Syncope / Mean Change From Baseline (CFB) in Maximum Flow Rate / IPSS/AUASS baseline value / Maximum Flow Rate baseline value / Mean Change From Baseline (CFB) in IPSS/AUASS: Study C; for IPSS/AUASS baseline value / Maximum Flow Rate baseline value: Week 0
Protocol: The 6-week stable dosing period was preceded by a 4-week placebo lead-in and a 2-week titration period. […] Male patients were selected who were at least 45 years of age with signs and symptoms of BPH (AUASS of 13 and maximum urine flow rate between 4 and 15 mL/sec). In addition, the results for IPSS/AUASS for studies A, B, D and E are illustrated in FIGS. 3 to 6, respectively, and the results for Qmax for studies A, B, D and E are illustrated in FIGS. 7 to 10, respectively.

[2] = tested on: symptoms of BPH; test: Study D: 8 mg Silodosin Once Daily (SI04009), U.S. Phase 3 Study; conditions: 8 mg once daily
Description: (§1) In addition, the results for IPSS/AUASS for studies A, B, D and E are illustrated in FIGS. 3 to 6, respectively, and the results for Qmax for studies A, B, D and E are illustrated in FIGS. 7 to 10, respectively.

[3] = tested on: symptoms associated with BPH; test: Efficacy Studies on Silodosin, studies A-E compared (once daily vs twice daily); conditions: Tables 6 and 7
Description: as §1

[4] = 8 mg once daily, Visit 3 (Day 29), Post-dose (2-6 hr), LOCF
[5] = 8 mg once daily, Visit 4 (Day 36), LOCF
[6] = 8 mg once daily, Visit 4 (Day 36), Post-dose (2-6 hr), LOCF
[7] = 8 mg once daily, Visit 5 (Day 43), LOCF
[8] = 8 mg once daily, Visit 5 (Day 43), Post-dose (2-6 hr), LOCF
[9] = 8 mg once daily, Visit 6 (Day 64), LOCF
[10] = 8 mg once daily, Visit 6 (Day 64), Post-dose (2-6 hr), LOCF
[11] = 8 mg once daily, Visit 7 (EOS, Day 84), LOCF
[12] = 8 mg once daily, Visit 7 (EOS, Day 84), Post-dose (2-6 hr), LOCF

C[C@H](Cc1cc2c(c(C(N)=O)c1)N(CCCO)CC2)NCCOc1ccccc1OCC(F)(F)F [Silodosin]
Q-max, Mean change (SD) ([1]; 4 mg once daily, Visit 7 (EOS, Day 84), Post-dose (2-6 hr), LOCF): 2.9 (4.0) ml/sec
Q-max, Mean (SD) [1, 4]: 11.7 (3.5) ml/sec
Q-max, Mean change (SD) [1, 4]: 2.0 (3.1) ml/sec
Q-max, Mean (SD) ([1]; 8 mg once daily, Visit 3 (baseline, Day 29), Pre-dose, LOCF): 9.6 (2.7) ml/sec
Total IPSS/AUASS Score, Mean (SD) ([1]; 8 mg once daily, Visit 3 (baseline, Day 29), modified intent to treat (LOCF)): 20.8 (5.3)
Total IPSS/AUASS Score, Mean (SD) [1, 5]: 18.0 (6.0)
Total IPSS/AUASS Score, Mean change (SD) [1, 5]: −2.7 (3.7)
Q-max, Mean (SD) [1, 6]: 12.5 (4.8) ml/sec
Q-max, Mean change (SD) [1, 6]: 2.9 (4.4) ml/sec
Total IPSS/AUASS Score, Mean (SD) [1, 7]: 16.5 (6.0)
Total IPSS/AUASS Score, Mean change (SD) [1, 7]: −4.3 (3.9)
Q-max, Mean (SD) [1, 8]: 12.5 (5.7) ml/sec
Q-max, Mean change (SD) [1, 8]: 2.9 (5.4) ml/sec
Total IPSS/AUASS Score, Mean (SD) [1, 9]: 15.9 (6.4)
Total IPSS/AUASS Score, Mean change (SD) [1, 9]: −4.9 (4.6)
Q-max, Mean (SD) [1, 10]: 12.9 (5.6) ml/sec
Q-max, Mean change (SD) [1, 10]: 3.2 (5.5) ml/sec
Total IPSS/AUASS Score, Mean (SD) [1, 11]: 14.0 (6.5)
Total IPSS/AUASS Score, Mean change (SD) [1, 11]: −6.8 (5.8)
Q-max, Mean (SD) [1, 12]: 13.0 (5.8) ml/sec
Q-max, Mean change (SD) [1, 12]: 3.5 (5.7) ml/sec
Incidence of Adverse Events: Dizziness ([1]; 4 mg once daily): 9.1 % of patients
Incidence of Adverse Events: Orthostatic Hypotension ([1]; 4 mg once daily): 4.5 % of patients
Incidence of Adverse Events: Syncope ([1]; 4 mg once daily): 0 % of patients
Mean Change From Baseline (CFB) in Maximum Flow Rate ([1]; 4 mg once daily, 2-6 hrs after 1st dose): 2.5 mL/s
IPSS/AUASS baseline value ([1]; 4 mg once daily): 19.7
Maximum Flow Rate baseline value ([1]; 4 mg once daily): 9.7 mL/s
Mean Change From Baseline (CFB) in IPSS/AUASS ([1]; 4 mg once daily, Week 1): −2.4
Mean Change From Baseline (CFB) in Maximum Flow Rate ([1]; 4 mg once daily, Week 1): 2.7 mL/s
Mean Change From Baseline (CFB) in IPSS/AUASS ([1]; 4 mg once daily, Week 2): −4.2
Mean Change From Baseline (CFB) in Maximum Flow Rate ([1]; 4 mg once daily, Week 2): 2.6 mL/s
Mean Change From Baseline (CFB) in IPSS/AUASS ([1]; 4 mg once daily, Week 5): −5.1
Mean Change From Baseline (CFB) in Maximum Flow Rate ([1]; 4 mg once daily, Week 5): 2.3 mL/s
Mean Change From Baseline (CFB) in IPSS/AUASS ([1]; 4 mg once daily, Week 8): −5.7
Mean Change From Baseline (CFB) in Maximum Flow Rate ([1]; 4 mg once daily, Week 8): 2.9 mL/s
Incidence of Adverse Events: Dizziness ([1]; 8 mg once daily): 5.6 % of patients
Incidence of Adverse Events: Orthostatic Hypotension ([1]; 8 mg once daily): 3.3 % of patients
Incidence of Adverse Events: Syncope ([1]; 8 mg once daily): 0 % of patients
Mean Change From Baseline (CFB) in Maximum Flow Rate ([1]; 8 mg once daily, 2-6 hrs after 1st dose): 2.0 mL/s
IPSS/AUASS baseline value ([1]; 8 mg once daily): 20.8
Maximum Flow Rate baseline value ([1]; 8 mg once daily): 9.6 mL/s
Mean Change From Baseline (CFB) in IPSS/AUASS ([1]; 8 mg once daily, Week 1): −2.7
Mean Change From Baseline (CFB) in Maximum Flow Rate ([1]; 8 mg once daily, Week 1): 2.9 mL/s
Mean Change From Baseline (CFB) in IPSS/AUASS ([1]; 8 mg once daily, Week 2): −4.3
Mean Change From Baseline (CFB) in Maximum Flow Rate ([1]; 8 mg once daily, Week 2): 2.9 mL/s
Mean Change From Baseline (CFB) in IPSS/AUASS ([1]; 8 mg once daily, Week 5): −4.9
Mean Change From Baseline (CFB) in Maximum Flow Rate ([1]; 8 mg once daily, Week 5): 3.2 mL/s
Mean Change From Baseline (CFB) in IPSS/AUASS ([1]; 8 mg once daily, Week 8): −6.8
Mean Change From Baseline (CFB) in Maximum Flow Rate ([1]; 8 mg once daily, Week 8): 3.4 mL/s
Incidence of Adverse Events: Dizziness [2]: 2.6 % of patients
Incidence of Adverse Events: Orthostatic Hypotension [2]: 2.6 % of patients
Incidence of Adverse Events: Syncope [2]: 0 % of patients
Mean Change From Baseline (CFB) in Maximum Flow Rate ([2]; 2-6 hrs after 1st dose): 2.7 mL/s
IPSS/AUASS baseline value ([2]; Week 0): 21.5
Maximum Flow Rate baseline value ([2]; Week 0): 9.0 mL/s
Mean Change From Baseline (CFB) in IPSS/AUASS ([2]; Week 0.5): −3.9
Mean Change From Baseline (CFB) in IPSS/AUASS ([2]; Week 1): −4.5
Mean Change From Baseline (CFB) in Maximum Flow Rate ([2]; Week 1): 2.2 mL/s
Mean Change From Baseline (CFB) in IPSS/AUASS ([2]; Week 2): −5.3
Mean Change From Baseline (CFB) in Maximum Flow Rate ([2]; Week 2): 2.6 mL/s
Mean Change From Baseline (CFB) in IPSS/AUASS ([2]; Week 4): −5.9
Mean Change From Baseline (CFB) in Maximum Flow Rate ([2]; Week 4): 2.4 mL/s
Mean Change From Baseline (CFB) in IPSS/AUASS ([2]; Week 12): −6.7
Mean Change From Baseline (CFB) in Maximum Flow Rate ([2]; Week 12): 2.1 mL/s
mean changes in IPSS/AUASS and Qmax, 8 mg once daily compared with 4 mg twice daily [3]: comparable
